Experimental data from US7767850B2, “S-[2-[(1-iminoethy)amino]ethyl]-2-methyl-L-cysteine maleate hydrochloride crystalline salt” (Pfizer Inc., priority 2003, dated 2010).

What was measured:
[1] = physchem; type: physicochemical
Excerpt: S-[2-[(1-Iminoethyl)amino]ethyl]-2-methyl-L-cysteine maleate hydrochloride crystals are birefringent with positive elongation when analyzed by polarized light microscopy.
Examples 7 and 8 only differ in the nature of agitation afforded to the system. […] The bead was agitated with a magnetic plate. […] Both the examples used 2.0 molar equivalents of maleic acid and 0.5 molar equivalent of HCl for each mole of S-[2-[(1-Iminoethyl)amino]ethyl]-2-methyl-L-cysteine. […] In Example 9, the water content of the system was 2.3% before the addition of acetonitrile, while the ratio of acetonitrile to DMF was 1.98 on weight/weight basis.

[2] = Moisture sorption study by DVS moisture balance; type: physicochemical; conditions: 25° C., sample of Example 10
Excerpt: FIG. 4 is a plot of a moisture sorption study of the crystalline S-[2-[(1-Iminoethyl)amino]ethyl]-2-methyl-L-cysteine maleate hydrochloride. […] Between 70 and 9% R.H., another 58% moisture was taken up by the solids. It is presumed that at 90% R.H. the crystal structure was destroyed to produce highly hygroscopic amorphous solids. During the de-sorption cycle (from 90 to 30% R.H.), these solids transformed into a mixture of form II of the crystalline S-[2-[(1-Iminoethyl)amino]ethyl]-2-methyl-L-cysteine maleate and amorphous zwitterion with excess hydrogen chloride. Subsequent de-sorption and re-sorption behavior was very similar to form II of the crystalline S-[2-[(1-Iminoethyl)amino]ethyl]-2-methyl-L-cysteine maleate. Powder x-ray analysis on the solids at the end of the experiment confirmed the presence of both form II the crystalline S-[2-[(1-Iminoethyl)amino]ethyl]-2-methyl-L-cysteine maleate and amorphous solids.

[3] = type: physicochemical
Excerpt: Additionally, the presence of excess maleic acid dramatically increases the solubility.
1-Butanol was selected as the best solvent to explore the possibility of utilizing a high boiling solvent that can easily be exchanged with water from the upstream aqueous chromatography purification step. […] This process was again designed to be very similar to the DMF/acetonitrile process. Following is a description of the initial process run at the 1 L scale.

[4] = Powder flow, aperture flow tester; type: physicochemical
Excerpt: Orderly packed agglomerates of S-[2-[(1-Iminoethyl)amino]ethyl]-2-methyl-L-cysteine maleate hydrochloride crystals made in Example 20 were studied to determine its powder characteristics that are relevant to the development of a pharmaceutical composition with S-[2-[(1-Iminoethyl)amino]ethyl]-2-methyl-L-cysteine maleate hydrochloride together with a pharmaceutically acceptable carrier. Before testing, the solids were passed through 80-mesh screen corresponding to 177 micrometer opening in order to fragment some very large loose aggregates of the orderly packed agglomerates. The properties tested included powder flow characteristics, powder particle size distribution, powder bulk and tapped density and powder compressibility and compaction. Powder flow was evaluated using an aperture flow tester, measured as the smallest opening at which the powder freely flows through. The powder flow test was repeatedly successful through a 6-mm aperture opening. A powder flow of 6-mm is considered good for formulation development of S-[2-[(1-Iminoethyl)amino]ethyl]-2-methyl-L-cysteine maleate hydrochloride crystals. Successful repetition of flow through a narrower 4-mm opening was, however, dependent on how the powder was introduced to the tester.

[5] = Particle size distribution by sieve analysis; type: physicochemical
Excerpt: (§1) Orderly packed agglomerates of S-[2-[(1-Iminoethyl)amino]ethyl]-2-methyl-L-cysteine maleate hydrochloride crystals made in Example 20 were studied to determine its powder characteristics that are relevant to the development of a pharmaceutical composition with S-[2-[(1-Iminoethyl)amino]ethyl]-2-methyl-L-cysteine maleate hydrochloride together with a pharmaceutically acceptable carrier. Before testing, the solids were passed through 80-mesh screen corresponding to 177 micrometer opening in order to fragment some very large loose aggregates of the orderly packed agglomerates. The properties tested included powder flow characteristics, powder particle size distribution, powder bulk and tapped density and powder compressibility and compaction.
Particle size distribution of the powder was measured using sieve analysis. The mean particle size distribution was calculated using the geometric mean method. […] Only 1.63% of material was considered as fines, less than 75-μm, with more than 90% within 105-250-μm. More than 75% of the material was within 105-150-μm. The tight range in the powder particle size distribution for orderly packed agglomerates is between 100 and 200-μm, which is highly desirable for the development of a pharmaceutical composition with S-[2-[(1-Iminoethyl)amino]ethyl]-2-methyl-L-cysteine maleate hydrochloride together with a pharmaceutically acceptable carrier.

[6] = Bulk and tapped powder density; type: physicochemical; conditions: orderly packed agglomerates of Example 20
Excerpt: as §1
Bulk powder density was evaluated as the mass of material within a 50-ml graduated cylinder.

[7] = Direct compression without excipients: tablet hardness and disintegration; type: physicochemical; conditions: for tablet hardness: 100-mg compacts, no excipients
Experimental: The powder was evaluated for direct compression without any excipients. Compacts of 100-mg in weight were manufactured using an 8/32 inch (6.35-mm) round concave tooling. Tablets were compressed at various compression forces and evaluated for strength, thickness and disintegration. […] Relatively strong small tablets ( 8/32 inch), as hard as 11-kP, are possible with compression force between 900 and 1000 kg. Tablet strength reaches an apparent maximum between 900 and 1000 kg compression force. Minor adhesion to the punch and die walls were observed during compression experiments. However, the sticking was considered to be a minor problem and could easily be resolved by using an appropriate lubricant. Tablet disintegration times were also evaluated for compacts of orderly packed agglomerates of S-[2-[(1-Iminoethyl)amino]ethyl]-2-methyl-L-cysteine maleate hydrochloride crystals. Three tablets were compressed with compression forces between 500 and 600, corresponding to 8 kP tablet hardness for this material.

[8] = orderly packed agglomerates of Example 20

| solubility in water (in words) [1] | solubility ([1]; water) [mg/mL] | moisture uptake ([2]; between 0 and 70% relative humidity) | further moisture taken up by the solids ([2]; between 70 and 9% R.H. as printed) [%] | solubility in 1-butanol [3] [wt %] | solubility in methanol [3] [wt %] | compressibility index [4, 8] [%] | powder flow, smallest aperture opening at which the powder freely flows through ([4]; orderly packed agglomerates of Example 20, passed through 80-mesh screen) [mm] | fraction of fines, less than 75-μm [5, 8] [%] | fraction of material within 105-150-μm [5, 8] | fraction of material within 105-250-μm [5, 8] | mean particle size ([5]; orderly packed agglomerates of Example 20, geometric mean method) [micrometers] | bulk powder density [6] [g/mL] | tapped density [6] [g/mL] | tablet hardness ([7]; 8/32 inch, compression force between 900 and 1000 kg) [kP] | tablet hardness ([7]; compression forces between 500 and 600) [kP] | tablet disintegration time ([7]; three tablets, compression forces between 500 and 600, 8 kP hardness) | Compound |
| --- | --- | --- | --- | --- | --- | --- | --- | --- | --- | --- | --- | --- | --- | --- | --- | --- | --- |
| highly soluble in water | > 150 | approximately 1.5% | 58 | 0.05 | 6.2 | 17.8 | 6 | 1.63 | More than 75% | more than 90% | 134 | 0.41 | 0.50 | ≤ 11 | 8 | less than 2 minutes | CC(=N)NCCSC[C@](C)(N)C(=O)O.Cl.O=C(O)/C=C\C(=O)O [S-[2-[(1-Iminoethyl)amino]ethyl]-2-methyl-L-cysteine maleate hydrochloride] |
| highly soluble in water | – | – | – | – | – | – | – | – | – | – | – | – | – | – | – | – | CC(=N)NCCSC[C@](C)(N)C(=O)O [S-[2-[(1-Iminoethyl)amino]ethyl]-2-methyl-L-cysteine] |
